“Also recorded” adds a separate entry of the source.
What was measured:
[1] = precipitation of small molecule under acid-mediated amyloidogenic conditions in the absence of TTR; assay type: physicochemical; settings: 3.6 μM, pH 4.4, 37° C., 72 h
Procedure: (§1) TTR amyloid inhibition efficacy was probed using a stagnant fibril formation assay described previously, wherein partial denaturation was triggered by acidification (pH 4.4, 37° C.) (Colon, W.; Kelly, J. W. Biochemistry 1992, 31, 8654-8660). Briefly, a test compound (7.2 or 3.6 μM) is incubated with TTR (3.6 μM) for 30 min in pH 7 buffer. Amyloidogenesis is then initiated by lowering to pH 4.4, where maximal fibril formation is observed with WT-TTR after 72 h (37° C.). The turbidity in the presence of a potential inhibitor (Ttest) is compared to that of a solution lacking a test compound (Tcontrol). […] From experience we know that excellent inhibitors allow <10% fibril formation at a small molecule concentration of 7.2 μM and <40% fibril formation at a concentration equal to that of WT-TTR (3.6 μM) (Hammarstrom, P.; et al. Science 2003, 299, 713-716; Klabunde, T.; et al. Nature Struct. Biol. 2000, 7, 312-321; Razavi, H.; et al. Angew Chem 2003, 42, 2758-2761; Miroy, G. J.; et al. Proc. Natl. Acad. Sci. USA 1996, 93, 15051-15056; Peterson, S. A.; et al. Proc. Natl. Acad. Sci. USA 1998, 95, 12956-12960; Baures, P. W.; et al. Bioorg. Med. Chem. 1998, 6, 1389-1401; Baures, P. W.; et al. Bioorg. Med. Chem. 1999, 7, 1339-1347; Petrassi, H. M.; et al. J. Am. Chem. Soc. 2000, 122, 2178-2192; McCammon, M. G.; et al. Structure 2002, 10, 851-863; Oza, V. B.; et al. J. Med. Chem. 2002, 45, 321-332; Sacchettini, J. C.; et al. Nature Rev. Drug Disc. 2002, 1, 267-275; Green, N. S.; et al. J. Am. Chem. Soc. 2003, 125, 13404-13414; Adamski-Werner, S. L.; et al. J. Med. Chem. 2004, 47, 355-374; Miller Sean, R.; et al. Lab. Inv. 2004, 84, 545-552). […] Therefore, when both the ligand and TTR are at equal concentrations, a population of TTR•I, TTR•I2 and unliganded TTR is observed, dictated by the dissociation constants. It is now established by other studies that inhibitor occupancy of only one of the two TTR binding sites is sufficient to stabilize the entire tetramer against amyloidogenesis (Wiseman, R. L.; et al. J. Am. Chem. Soc. 2005, in press). This is further supported by the observation herein that twenty-six of these dibenzofurans are excellent TTR amyloidogenesis inhibitors (<40% fibril formation) at a concentration equal to that of TTR (3.6 μM each, FIG. 3).

WT-TTR = target: T1, WT-TTR (Homo sapiens, UniProt P02766); experiment: stagnant acid-mediated TTR fibril formation assay (turbidity); assay type: biochemical; settings: WT-TTR 3.6 μM; for inhibitor potency against fibril formation (in words): inhibitor 3.6 μM, pH 4.4, 72 h
T1 construct: made in house
Procedure: as §1
(§2) The procedures used for bacterial expression of TTR (Lai, Z.; et al. Biochemistry 1996, 35, 6470-6482), the stagnant fibril formation assay (Colon, W.; Kelly, J. W. Biochemistry 1992, 31, 8654-8660; Lai, Z.; et al. Biochemistry 1996, 35, 6470-6482), the blood plasma binding selectivity assay (Purkey, H. E.; et al. Proc. Natl. Acad. Sci. USA 2001, 98, 5566-5571), and analytical ultracentrifugation (Lashuel, H. A.; et al. Biochemistry 1998, 37, 17851-17864) have all been described in detail previously.
FIG. 2 is a table highlighting the concentration dependent acid-substituted dibenzofuran activity against WT-TTR (3.6 μM) amyloid fibril formation (f.f.) at pH 4.4 (72 h). Values represent the extent of f.f. and thus inhibitor efficacy relative to WT-TTR fibril formation in the absence of inhibitor (assigned to be 100%): complete inhibition is equivalent to 0% f.f.
(§3) FIG. 3 is a chart showing a summary of dibenzofuran-based amyloid inhibition activity ([…]) against WT-TTR ([…]) fibril formation (pH 4.4, 72 h) and binding stoichiometry to TTR in human blood plasma. % Fibril formation (f.f.) values in the middle column represent the extent of f.f., and thus inhibitor efficacy, relative to WT-TTR f.f. in the absence of inhibitor (assigned to be 100%). Complete inhibition is equivalent to 0% f.f. The right column depicts the observed stoichiometry of inhibitor (dosed at […], ˜2-3× the concentration of plasma TTR) bound to TTR in blood plasma as determined using the antibody capture method.
FIG. 6 is a chart showing dibenzofuran-based inhibitor activity (7.2 μM) against WT-TTR (3.6 μM) amyloid fibril formation (f.f.) at pH 4.4 (72 h). […]

[2] = target: T2, TTR in human blood plasma (Homo sapiens, UniProt P02766); experiment: blood plasma TTR binding selectivity, antibody capture method; settings: inhibitor 10.8 μM
T2 construct: from tissue; host or cells: human blood plasma
Procedure: Inhibitor binding selectivity to TTR in human blood plasma was assessed using a previously established antibody capture method (Purkey, H. E.; et al. Proc. Natl. Acad. Sci. USA 2001, 98, 5566-5571). In this evaluation, inhibitors (10.8 μM, ˜2-3× the natural concentration of TTR) are incubated in human blood plasma for 24 h at 37° C. Quenched sepharose resin is then added to the plasma to remove any small molecules that would bind to the resin as opposed to TTR. TTR and any TTR-bound small molecule is then immunocaptured using a polyclonal TTR antibody covalently attached to sepharose resin. After washing the resin (5×10 min washes), the antibody-TTR complex is dissociated at high pH and analyzed by RP-HPLC. The relative stoichiometry between TTR and inhibitor is then calculated from their HPLC peak areas using standard curves.
as §2, §3

| Structure (SMILES) | precipitation of compound in the absence of TTR [1] | inhibitor potency against fibril formation (in words) (WT-TTR) | binding selectivity to TTR in human blood plasma (in words) [2] | other results |
| --- | --- | --- | --- | --- |
| O=C(O)c1cccc2c1oc1c(C(=O)O)ccc(Nc3cc(Cl)cc(Cl)c3)c12 [Compound 30] | no measurable precipitation |  |  |  |
| O=C(O)c1cccc(Nc2ccc(C(=O)O)c3oc4c(C(=O)O)cccc4c23)c1 [Compound 33] |  | amongst the most potent | modest |  |
| O=C(O)c1cccc2c1oc1c(C(=O)O)ccc(Oc3cccc(C(F)(F)F)c3)c12 [Compound 45] | no measurable precipitation |  |  |  |
| O=C(O)c1cccc2c1oc1c(C(=O)O)ccc(-c3cc(F)cc(F)c3)c12 [Compound 62] | no measurable precipitation |  |  |  |
| O=C(O)c1cccc2c1oc1c(C(=O)O)ccc(Nc3cccc(Cl)c3)c12 [Compound 27] | no measurable precipitation |  |  |  |
| O=C(O)c1cccc2c1oc1c(C(=O)O)ccc(-c3ccccc3F)c12 [Compound 67] |  | most potent |  |  |
| O=C(O)c1cccc2c1oc1c(C(=O)O)cccc12 [Compound 1, dibenzofuran-4,6-dicarboxylic acid, reference compound] |  |  | no measurable binding selectivity |  |
| O=C(O)c1cccc2c1oc1c(C(=O)O)ccc(-c3cc(Cl)cc(Cl)c3)c12 [Compound 63] |  | most potent |  |  |
| O=C(O)c1cccc(-c2ccc(C(=O)O)c3oc4c(C(=O)O)cccc4c23)c1 [Compound 69] |  | amongst the most potent | modest |  |
| O=C(O)c1cccc2c1oc1c(C(=O)O)ccc(Nc3cccc(C(F)(F)F)c3)c12 [Compound 26] | no measurable precipitation |  |  |  |
| O=C(O)c1cccc2c1oc1c(C(=O)O)ccc(Nc3ccccc3F)c12 [Compound 36] |  | most potent |  |  |
| O=C(O)c1ccc(Nc2ccc(C(=O)O)c3oc4c(C(=O)O)cccc4c23)cc1 [Compound 35] |  |  | all but two (31 and 35) exhibit dramatically increased binding selectivity |  |
| O=C(O)c1cccc2c1oc1c(C(=O)O)ccc(Nc3cc(C(F)(F)F)cc(C(F)(F)F)c3)c12 [Compound 31] |  |  | all but two (31 and 35) exhibit dramatically increased binding selectivity |  |
| O=C(O)c1cc(Nc2ccc(C(=O)O)c3oc4c(C(=O)O)cccc4c23)cc(C(=O)O)c1 [Compound 34] |  | all the inhibitors (except 34) display increased potency relative to the parent compound (1) |  | inhibition of WT-TTR fibril formation at 7.2 μM inhibitor (in words) (WT-TTR; inhibitor 7.2 μM, pH 4.4, 37° C., 72 h): not as effective; also recorded: all but one (34) completely inhibit fibril formation |

From US20080319175A1, “Transthyretin Stabilization” (The Scripps Research Institute, priority 2004, published 2008)
